Results published in PubChem BioAssay (NCI).
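Cultured in 96-well plates, cells were exposed to test compound for 48 hours across five concentrations. GI50: concentration for 50% inhibition of growth. TGI: concentration producing complete growth inhibition.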

What was measured:
Test in all cases: DTP human tumour cell line panel, 48 h
786-0 renal = system: 786-0 renal
A498 renal = system: A498 renal
A549 NSCLC = system: A549 NSCLC
ACHN renal = system: ACHN renal
CAKI-1 renal = system: CAKI-1 renal
CCRF-CEM leukemia = system: CCRF-CEM leukemia
COLO 205 colon = system: COLO 205 colon
DLD-1 colon = system: DLD-1 colon
DMS 114 small cell lung = system: DMS 114 small cell lung
EKVX NSCLC = system: EKVX NSCLC
HCC-2998 colon = system: HCC-2998 colon
HCT-116 colon = system: HCT-116 colon
HCT-15 colon = system: HCT-15 colon
HL-60(TB) leukemia = system: HL-60(TB) leukemia
HOP-18 NSCLC = system: HOP-18 NSCLC
HOP-62 NSCLC = system: HOP-62 NSCLC
HOP-92 NSCLC = system: HOP-92 NSCLC
HT29 colon = system: HT29 colon
IGROV1 ovarian = system: IGROV1 ovarian
K-562 leukemia = system: K-562 leukemia
KM12 colon = system: KM12 colon
KM20L2 colon = system: KM20L2 colon
LOX IMVI melanoma = system: LOX IMVI melanoma
LXFL 529 NSCLC = system: LXFL 529 NSCLC
M14 melanoma = system: M14 melanoma
MALME-3M melanoma = system: MALME-3M melanoma
MOLT-4 leukemia = system: MOLT-4 leukemia
NCI-H226 lung = system: NCI-H226 lung
NCI-H23 lung = system: NCI-H23 lung
NCI-H460 lung = system: NCI-H460 lung
NCI-H522 lung = system: NCI-H522 lung
OVCAR-3 ovarian = system: OVCAR-3 ovarian
OVCAR-4 ovarian = system: OVCAR-4 ovarian
OVCAR-5 ovarian = system: OVCAR-5 ovarian
OVCAR-8 ovarian = system: OVCAR-8 ovarian
RPMI-8226 leukemia = system: RPMI-8226 leukemia
RXF 393 renal = system: RXF 393 renal
SF-268 CNS = system: SF-268 CNS
SF-295 CNS = system: SF-295 CNS
SF-539 CNS = system: SF-539 CNS
SK-MEL-2 melanoma = system: SK-MEL-2 melanoma
SK-MEL-28 melanoma = system: SK-MEL-28 melanoma
SK-MEL-5 melanoma = system: SK-MEL-5 melanoma
SK-OV-3 ovarian = system: SK-OV-3 ovarian
SN12C renal = system: SN12C renal
SNB-19 CNS = system: SNB-19 CNS
SNB-75 CNS = system: SNB-75 CNS
SR leukemia = system: SR leukemia
SW-620 colon = system: SW-620 colon
TK-10 renal = system: TK-10 renal
U251 CNS = system: U251 CNS
UACC-257 melanoma = system: UACC-257 melanoma
UACC-62 melanoma = system: UACC-62 melanoma
UO-31 renal = system: UO-31 renal
XF 498 CNS = system: XF 498 CNS

CC(=O)[CH-]C(C)=O.CC(=O)[CH-]C(C)=O.[CH2-]CCCCCCC.[CH2-]CCCCCCC.[Sn+4]
GI50 (786-0 renal): 15.8 µM
TGI (786-0 renal): 30.1 µM
GI50 (A498 renal): 23 µM
TGI (A498 renal): 46.7 µM
GI50 (A549 NSCLC): 45.6 µM
TGI (A549 NSCLC): > 100 µM
GI50 (ACHN renal): 28.3 µM
TGI (ACHN renal): 70.4 µM
GI50 (CAKI-1 renal): 36.7 µM
TGI (CAKI-1 renal): > 100 µM
GI50 (CCRF-CEM leukemia): 27 µM
TGI (CCRF-CEM leukemia): 69 µM
GI50 (COLO 205 colon): 14.7 µM
TGI (COLO 205 colon): 28.8 µM
GI50 (DLD-1 colon): 18.8 µM
TGI (DLD-1 colon): 45.2 µM
GI50 (DMS 114 small cell lung): 16.7 µM
TGI (DMS 114 small cell lung): 31.2 µM
GI50 (EKVX NSCLC): 14.7 µM
TGI (EKVX NSCLC): 35.4 µM
GI50 (HCC-2998 colon): 17 µM
TGI (HCC-2998 colon): 31.5 µM
GI50 (HCT-116 colon): 14.8 µM
TGI (HCT-116 colon): 29.1 µM
GI50 (HCT-15 colon): 23.2 µM
TGI (HCT-15 colon): 56.2 µM
GI50 (HL-60(TB) leukemia): 21.1 µM
TGI (HL-60(TB) leukemia): 81.6 µM
GI50 (HOP-18 NSCLC): > 100 µM
TGI (HOP-18 NSCLC): > 100 µM
GI50 (HOP-62 NSCLC): 22.4 µM
TGI (HOP-62 NSCLC): 40.9 µM
GI50 (HOP-92 NSCLC): 18.1 µM
TGI (HOP-92 NSCLC): 40.7 µM
GI50 (HT29 colon): 23.5 µM
TGI (HT29 colon): 59.6 µM
GI50 (IGROV1 ovarian): 20.3 µM
TGI (IGROV1 ovarian): 49.2 µM
GI50 (K-562 leukemia): 20.5 µM
TGI (K-562 leukemia): 93.5 µM
GI50 (KM12 colon): 16.7 µM
TGI (KM12 colon): 34.4 µM
GI50 (KM20L2 colon): 25 µM
TGI (KM20L2 colon): 57.6 µM
GI50 (LOX IMVI melanoma): 13.8 µM
TGI (LOX IMVI melanoma): 27 µM
GI50 (LXFL 529 NSCLC): 16.2 µM
TGI (LXFL 529 NSCLC): 30.1 µM
GI50 (M14 melanoma): 18.5 µM
TGI (M14 melanoma): 35.5 µM
GI50 (MALME-3M melanoma): 17.6 µM
TGI (MALME-3M melanoma): 39.5 µM
GI50 (MOLT-4 leukemia): 37.2 µM
TGI (MOLT-4 leukemia): 73 µM
GI50 (NCI-H226 lung): 26.2 µM
TGI (NCI-H226 lung): 52.3 µM
GI50 (NCI-H23 lung): 18.7 µM
TGI (NCI-H23 lung): 33.6 µM
GI50 (NCI-H460 lung): 17.3 µM
TGI (NCI-H460 lung): 37.8 µM
GI50 (NCI-H522 lung): 20.3 µM
TGI (NCI-H522 lung): 46.2 µM
GI50 (OVCAR-3 ovarian): 15.9 µM
TGI (OVCAR-3 ovarian): 33.8 µM
GI50 (OVCAR-4 ovarian): 22.3 µM
TGI (OVCAR-4 ovarian): 78.6 µM
GI50 (OVCAR-5 ovarian): 15.5 µM
TGI (OVCAR-5 ovarian): 37.7 µM
GI50 (OVCAR-8 ovarian): 16.8 µM
TGI (OVCAR-8 ovarian): 32.1 µM
GI50 (RPMI-8226 leukemia): 18.5 µM
TGI (RPMI-8226 leukemia): 40.4 µM
GI50 (RXF 393 renal): 14.6 µM
TGI (RXF 393 renal): 32.9 µM
GI50 (SF-268 CNS): 18.9 µM
TGI (SF-268 CNS): 57.9 µM
GI50 (SF-295 CNS): 15.4 µM
TGI (SF-295 CNS): 30.6 µM
GI50 (SF-539 CNS): 22.2 µM
TGI (SF-539 CNS): 58.6 µM
GI50 (SK-MEL-2 melanoma): 14.8 µM
TGI (SK-MEL-2 melanoma): 32 µM
GI50 (SK-MEL-28 melanoma): 14.7 µM
TGI (SK-MEL-28 melanoma): 28.4 µM
GI50 (SK-MEL-5 melanoma): 17.7 µM
TGI (SK-MEL-5 melanoma): 32 µM
GI50 (SK-OV-3 ovarian): 25.5 µM
TGI (SK-OV-3 ovarian): 67.1 µM
GI50 (SN12C renal): 22.7 µM
TGI (SN12C renal): 59.1 µM
GI50 (SNB-19 CNS): 17.5 µM
TGI (SNB-19 CNS): 35.8 µM
GI50 (SNB-75 CNS): 14.7 µM
TGI (SNB-75 CNS): 78.6 µM
GI50 (SR leukemia): 39.9 µM
TGI (SR leukemia): 62.4 µM
GI50 (SW-620 colon): 16.4 µM
TGI (SW-620 colon): 31.7 µM
GI50 (TK-10 renal): 23.7 µM
TGI (TK-10 renal): 45.2 µM
GI50 (U251 CNS): 15 µM
TGI (U251 CNS): 28.3 µM
GI50 (UACC-257 melanoma): 17.8 µM
TGI (UACC-257 melanoma): 34.9 µM
GI50 (UACC-62 melanoma): 15.6 µM
TGI (UACC-62 melanoma): 29.4 µM
GI50 (UO-31 renal): 17.2 µM
TGI (UO-31 renal): 34.8 µM
GI50 (XF 498 CNS): 11.8 µM
TGI (XF 498 CNS): 24.1 µM
